Measurements from US20210330611A1, “THERAPY FOR NEUROLOGICAL DISEASES/DISORDERS” (priority 2020, published 2021).
Counter-ions that a name gives are not always drawn. Like-named read-outs stand apart in the source and are kept apart here.

How the values were obtained:
[1] = tested on: fibrin-induced microglia activation; assay: Image-based assay of fibrin-induced microglia activation (HTS and dose response); assay type: cell-based, rat; details: for inhibition at 10 µM: Rattus norvegicus, Microglia, read-out: Fibrin % inhibition
primary rat microglia [2] = tested on: primary rat microglia;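 on Fibrin % cell toxicity: share of dead cells sized under 150 µm2 at 10 µM in fibrin-stimulated microglia HTS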
primary rat microglia [3] = tested on: primary rat microglia; remark: listed apart in the source;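 on Fibrin % cell toxicity: share of dead cells sized under 150 µm2 at 10 µM in fibrin-stimulated microglia HTS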
[4] = tested on: LPS-induced microglia activation; assay: Image-based assay of LPS-induced microglia activation (HTS and dose response); assay type: cell-based, rat; details: for inhibition at 10 µM: Rattus norvegicus, Microglia, read-out: LPS % inhibition
[5] = tested on: fibrin- and LPS-induced microglia activation; assay: cells; assay type: cell-based, rat
[6] = quadrant by fibrin and LPS inhibition in HTS of 1907 compounds
[7] = primary microglia HTS, fibrin stimulation, increased cell size (>800 μm^2) as marker of activation
[8] = 48 h, primary microglia HTS, LPS stimulation, increased cell size (>800 μm^2) as marker of activation
[9] = primary microglia HTS, fibrin stimulation, compounds at 10 μM
[10] = primary microglia HTS, LPS stimulation, compounds at 10 μM
[11] = primary HTS, 10 μM, fibrin-stimulated primary microglia
[12] = primary HTS, 10 μM, LPS-stimulated primary microglia

`CC1CC(OC(=O)c2ccccc2O)CC(C)(C)C1` (stereo not drawn) [Homosalate] was tested, and the inhibition at 10 µM ([1]; primary microglia HTS, fibrin stimulation, activation = cell size >800 μm2) was -3%, the “LPS % cell toxicity” value (primary rat microglia [2]; rat) was 1% and the “Fibrin % cell toxicity” value (primary rat microglia [3]; rat) was 1%. For the same compound, the inhibition at 10 µM ([4]; 48 h, primary microglia HTS, LPS stimulation, activation = cell size >800 μm2) was 18% and the “Quadrant (FIG. 5b)” value [5, 6] was “Q4”.
In the case of `Cc1nc2n(c(=O)c1CCN1CCC(c3noc4cc(F)ccc34)CC1)CCCC2O` (stereo not drawn) [Paliperidone], the inhibition at 10 µM [1, 7] is reported as -26%, the “LPS % cell toxicity” value (primary rat microglia [2]; rat) is reported as 0% and the “Fibrin % cell toxicity” value (primary rat microglia [3]; rat) is reported as 1%. The inhibition at 10 µM [4, 8] was 9% and the “Quadrant (FIG. 5b)” value [5, 6] was “Q4”.
`Cc1c(C)c2c(c(C)c1O)CCC(C)(CCCC(C)CCCC(C)CCCC(C)C)O2` (stereo not drawn) [Alpha-tochopherol] was tested, and the Fibrin % inhibition [1, 9] was 18%, the “LPS % cell toxicity” value (primary rat microglia [2]) was 0% and the “Fibrin % cell toxicity” value (primary rat microglia [3]) was 0%. For the same compound, the LPS % inhibition [4, 10] was 21% and the “Quadrant (FIG. 5b)” value ([5]; quadrant by fibrin and LPS inhibition, HTS at 10 μM) was “Q4”.
For `CCN(CC)CCOCCOC(=O)C1(c2ccccc2)CCCC1` [Carbetapentane Citrate], the inhibition at 10 µM [1, 11] was -13%, the “LPS % cell toxicity” value (primary rat microglia [2]; rat) was 0% and the “Fibrin % cell toxicity” value (primary rat microglia [3]; rat) was 1%. For the same compound, the inhibition at 10 µM [4, 12] was 7% and the “Quadrant (FIG. 5b)” value ([5]; primary HTS, 10 μM) was “Q4”.
Vitamin A was tested, and the Fibrin % inhibition ([1]; primary microglia HTS, 10 μM, fibrin-stimulated, cell size >800 μm^2 as marker of activation) was 15%, the “LPS % cell toxicity” value (primary rat microglia [2]) was 0% and the “Fibrin % cell toxicity” value (primary rat microglia [3]) was 1%. The LPS % inhibition ([4]; primary microglia HTS, 10 μM, LPS-stimulated, cell size >800 μm^2 as marker of activation) was 17% and the “Quadrant (FIG. 5b)” value ([5]; HTS of 1907 compounds, quadrant by fibrin and LPS inhibition) was “Q4”.
With `COc1cc(Cc2cnc(N)nc2N)cc(OC)c1OC` [Trimethoprim] the inhibition at 10 µM [1] was -26%, the “LPS % cell toxicity” value (primary rat microglia [2]; rat) was 0% and the “Fibrin % cell toxicity” value (primary rat microglia [3]; rat) was 0%. For the same compound, the inhibition at 10 µM [4] was 17% and the “Quadrant (FIG. 5b)” value [5] was “Q4”.
Compound “Hydrocortisone hemisuccinate [reference compound]” has a Fibrin % inhibition [1] of 100%, a fib specificity [1] of 8.4 and a fib_HS [1] of −0.39. It also gave an IC50 ([1]; read-out: Fibrin IC50) of 0.02 µM, an IC50 ([1]; read-out: Fibrin IC50 (uM) (Suppl. Table 7)) of 0.02 µM and an IC50 ([1]; read-out: fib_IC50) of 0.004 µM. The IC50 (primary rat microglia [2]) was over 20000 nM, the “LPS % cell toxicity” value (primary rat microglia [2]) was 1% and the “Fibrin % cell toxicity” value (primary rat microglia [3]) was 1%. It also gave an IC50 (primary rat microglia [3]) of over 20000 nM, an LPS % inhibition [4] of 64% and an LPS specificity [4] of 0.1. For the same compound, the LPS_HS [4] was −1.10, the IC50 ([4]; read-out: LPS IC50) was 7 µM and the IC50 ([4]; read-out: LPS IC50 (uM) (Suppl. Table 7)) was 7 µM. The IC50 ([4]; read-out: LPS_IC50) was 0.036 µM, the Activity [5] was “fib/LPS” and the “Cherry-picked Hit (Suppl. Table 7)” value [5] was “HIT (key: HIT: Hits were defined as molecules that exhibited greater than 50% inhibition of either fibrin or LPS activation)”. For the same compound, the Hit [5] was “HIT (key: HIT: Hits were defined as molecules that exhibited greater than 50% inhibition of either fibrin or LPS activation)” and the “Quadrant (FIG. 5b)” value [5] was “Q2”.
For `NC1=NCC2c3ccccc3Cc3ccccc3N12` (stereo not drawn) [Epinastine], the inhibition at 10 µM [1] was -38%, the “LPS % cell toxicity” value (primary rat microglia [2]; rat) was 0% and the “Fibrin % cell toxicity” value (primary rat microglia [3]; rat) was 1%. The inhibition at 10 µM [4] was -15% and the “Quadrant (FIG. 5b)” value [5] was “Q4”.
With `CC(C)NCC(O)c1cc(O)cc(O)c1` (stereo not drawn) [Orciprenaline] the inhibition at 10 µM [1, 7] was 15%, the “LPS % cell toxicity” value (primary rat microglia [2]; rat) was 0% and the “Fibrin % cell toxicity” value (primary rat microglia [3]; rat) was 0%. For the same compound, the inhibition at 10 µM [4, 8] was 25% and the “Quadrant (FIG. 5b)” value [5, 6] was “Q4”.
For `O=C1CN(/N=C/c2ccc([N+](=O)[O-])o2)C(=O)N1` [Nitrofurantoin], the inhibition at 10 µM [1] was -3%, the “LPS % cell toxicity” value (primary rat microglia [2]; rat) was 0% and the “Fibrin % cell toxicity” value (primary rat microglia [3]; rat) was 1%. The inhibition at 10 µM ([4]; 48 h) was 11% and the “Quadrant (FIG. 5b)” value [5] was “Q4”.
With `O=C1CC2(CCCC2)CC(=O)N1CCCCN1CCN(c2ncccn2)CC1` [Buspirone] the inhibition at 10 µM [1] was -13%, the “LPS % cell toxicity” value (primary rat microglia [2]; rat) was 0% and the “Fibrin % cell toxicity” value (primary rat microglia [3]; rat) was 0%. For the same compound, the inhibition at 10 µM [4] was 8% and the “Quadrant (FIG. 5b)” value [5] was “Q4”.
`Nc1ccc(S(=O)(=O)c2ccc(N)cc2)cc1` [Dapsone] was tested, and the inhibition at 10 µM [1, 9] was -23%, the “LPS % cell toxicity” value (primary rat microglia [2]; rat) was 0% and the “Fibrin % cell toxicity” value (primary rat microglia [3]; rat) was 1%. For the same compound, the inhibition at 10 µM [4, 10] was 11% and the “Quadrant (FIG. 5b)” value ([5]; classification by fibrin and LPS inhibition, HTS at 10 μM) was “Q4”.
`O=c1n(CCCN2CCN(c3cccc(Cl)c3)CC2)nc2ccccn12` [Trazodone] was tested, and the inhibition at 10 µM [1] was -10%, the “LPS % cell toxicity” value (primary rat microglia [2]; rat) was 0% and the “Fibrin % cell toxicity” value (primary rat microglia [3]; rat) was 0%. The inhibition at 10 µM [4] was -2% and the “Quadrant (FIG. 5b)” value [5] was “Q4”.
With `CC=CC1=C(C(=O)O)N2C(=O)[C@@H](NC(=O)[C@H](N)c3ccc(O)cc3)[C@H]2SC1` [Cefprozil] the Fibrin % inhibition [1, 11] was 3%, the “LPS % cell toxicity” value (primary rat microglia [2]) was 0% and the “Fibrin % cell toxicity” value (primary rat microglia [3]) was 0%. The LPS % inhibition [4, 12] was 14% and the “Quadrant (FIG. 5b)” value ([5]; primary HTS, 10 μM) was “Q4”.
In the case of `Cc1ccc(-c2cc(C(F)(F)F)nn2-c2ccc(S(N)(=O)=O)cc2)cc1` [Celecoxib], the inhibition at 10 µM [1, 11] is reported as -31%, the “LPS % cell toxicity” value (primary rat microglia [2]; rat) is reported as 0% and the “Fibrin % cell toxicity” value (primary rat microglia [3]; rat) is reported as 0%. For the same compound, the inhibition at 10 µM [4, 12] was 21% and the “Quadrant (FIG. 5b)” value ([5]; primary HTS, 10 μM) was “Q4”.
